According to patent US10294202B2, “Pyrrolidinones as herbicides” (FMC Corporation, priority 2013, dated 2019):

Key:
Assay in all cases: Test E preemergence herbicide test
Parameters in all cases: key: 0 = no effect, 100 = complete control
[1] = test system: soybean; assay type: in vivo, Glycine max
From the text: (§1) Seeds of plant species selected from corn (Zea mays), soybean (Glycine max), velvetleaf (Abutilon theophrasti), lambsquarters (Chenopodium album), wild poinsettia (Euphorbia heterophylla), pigweed, palmer (palmer pigweed, Amaranthus palmeri), waterhemp (common waterhemp, Amaranthus rudis), surinam grass (Brachiaria decumbens), crabgrass, large (large crabgrass, Digitaria sanguinalis), crabgrass, Brazil (Brazilian crabgrass, Digitaria horizontalis), panicum, fall (fall panicum, Panicum dichotomiflorum), foxtail, giant (giant foxtail, Setaria faberii), foxtail, green (green foxtail, Setaria viridis), goosegrass (Eleusine indica), johnsongrass (Sorghum halepense), ragweed (common ragweed, Ambrosia elatior), barnyardgrass (Echinochloa crus-galli), sandbur (southern sandbur, Cenchrus echinatus), arrowleaf […] rhombifolia), ryegrass, Italian (Italian ryegrass, Lolium multiflorum), dayflower, VA (Virginia dayflower, Commelina virginica), field bindweed (Convolvulus arvensis), morningglory (Ipomoea coccinea), nightshade (eastern black nightshade, Solanum ptycanthum), kochia (Kochia scoparia), nutsedge, yellow (yellow nutsedge, Cyperus esculentus), cocklebur (common cocklebur, Xanthium strumarium), smartweed (ladysthumb smartweed, Polygonum Persicaria) and beggarticks (hairy beggarticks, Bidens pilosa), were planted into a silt loam soil and treated preemergence with test chemicals formulated in a non-phytotoxic solvent mixture which included a surfactant. Treated plants and controls were maintained in a greenhouse for 21 days, after which time all species were compared to controls and visually evaluated. Plant response ratings, summarized in Table E, are based on a scale of 0 to 100 where 0 is no effect and 100 is complete control. A dash (-) response means no test result.

[2] = test system: foxtail, green; assay type: in vivo, Setaria viridis
From the text: as §1

[3] = test system: goosegrass; assay type: in vivo, Eleusine indica
In short: (§2)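 Seeds were sown in silt loam soil and treated preemergence with test chemicals in a non-phytotoxic solvent mixture containing a surfactant. Plants were kept in a greenhouse for 21 days, then visually rated against untreated controls on a 0–100 scale (0 = no effect, 100 = complete control).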

[4] = test system: dayflower, VA; assay type: in vivo, Commelina virginica
In short: as §2

[5] = test system: nightshade; assay type: in vivo, Solanum ptycanthum
In short: as §2

For O=C1NCC(c2ccc(C(F)(F)F)cc2)C1C(=O)Nc1ccc(F)c(F)c1F (stereo not shown) [Compound 232], the “Plant response rating, Soybean” value ([1]; 31 g ai/ha) was 0, the “Plant response rating, Soybean” value ([1]; 62 g ai/ha) was 0 and the “Plant response rating, Soybean” value ([1]; 125 g ai/ha) was 0. For the same compound, the “Plant response rating, Soybean” value ([1]; 250 g ai/ha) was 0, the “Plant response rating, Foxtail, Green” value ([2]; 31 g ai/ha) was 80 and the “Plant response rating, Foxtail, Green” value ([2]; 62 g ai/ha) was 95. The “Plant response rating, Foxtail, Green” value ([2]; 125 g ai/ha) was 98, the “Plant response rating, Foxtail, Green” value ([2]; 250 g ai/ha) was 98 and the “Plant response rating, Goosegrass” value ([3]; 31 g ai/ha) was 35. For the same compound, the “Plant response rating, Goosegrass” value ([3]; 62 g ai/ha) was 80, the “Plant response rating, Goosegrass” value ([3]; 125 g ai/ha) was 85 and the “Plant response rating, Goosegrass” value ([3]; 250 g ai/ha) was 95. For the same compound, the “Plant response rating, Dayflower, VA” value ([4]; 31 g ai/ha) was 0, the “Plant response rating, Dayflower, VA” value ([4]; 62 g ai/ha) was 0 and the “Plant response rating, Dayflower, VA” value ([4]; 125 g ai/ha) was 0. For the same compound, the “Plant response rating, Dayflower, VA” value ([4]; 250 g ai/ha) was 10, the “Plant response rating, Nightshade” value ([5]; 31 g ai/ha) was 25 and the “Plant response rating, Nightshade” value ([5]; 62 g ai/ha) was 75. The “Plant response rating, Nightshade” value ([5]; 125 g ai/ha) was 98.
